This note sets out measurements from patent US10494610B2, “Three dimensional matrix for cancer stem cells” (UNIVERSITY OF SOUTH CAROLINA, priority 2013, dated 2019).

The subject of the test is 4T1 mouse breast carcinoma cells. As to the kind of experiment: Tumorsphere formation, size and cell number of cells encapsulated in the gel. As to conditions: 9 days; for tumorsphere formation: 4T1 in 5 kPa PEGDA gel with peptide conjugated (conj) or dissolved (dis); for cell number density compared with the gel without peptide: 4T1 in PEGDA gel with peptide conjugated (conj) or dissolved (dis). Format: cell-based. How it is done:
4T1 and MCF7 tumor cells were cultured in RMPI-1640 medium with 10% FBS under 5% CO2 at 37° C. Cells were trypsinized after reaching 70% confluency. PEGDA macromer was dissolved in PBS and sterilized by filtration with a 0.2 μm filter. Next, 1.4×10^5/mL 4T1 or MCF7 cells suspended in PBS were added to the macromer solution with final PEGDA concentrations ranging 5-25 wt % and mixed gently with a pre-sterilized glass rod. The cell-suspended hydrogel precursor solution was crosslinked with UV for 10 min. After crosslinking, the gel was cut into disks and incubated in stem cell culture medium in ultra-low attachment tissue culture plates under 5% CO2. The stem cell medium consisted of DMEM-F12 supplemented with 0.4% bovine serum albumin (BSA), 5 μg/mL insulin, 40 ng/mL basic fibroblast growth factor (bFGF), 20 ng/mL EGF, 5% horse serum, 100 U/mL penicillin, and 100 μg/mL streptomycin.
To determine cell viability, gels were stained with cAM/EthD live/dead dyes 2 days after encapsulation to image live and dead cells, respectively. Stained samples were imaged with an inverted fluorescent microscope (Nikon Eclipse Ti-ε, Nikon, Melville, N.Y.). Cell viability was quantified by dividing the image into smaller squares and counting the number of live and dead cells. At each time point, the gel samples were removed from the culture media and stained for imaging. Samples were rinsed twice with PBS and fixed with 4% paraformaldehyde for 3 h. After fixation, cells were permeabilized using PBS containing 0.1% Triton X-100 for 5 min. After rinsing, cells were incubated with Alexa 488 phalloidin (1:200 dilution) and DAPI (1:5000 dilution) to stain actin filaments of the cell cytoskeleton and cell nuclei, respectively. Stained samples were imaged with a Nikon Eclipse Ti-ε inverted fluorescent microscope. For visualization of cell uniformity, a confocal fluorescent microscope (Zeiss LSM-510 META Axiovert, Carl Zeiss, Germany) was used to obtain 2D images (90 μm thick layers) of the stained gels in the direction of thickness. For determination of cell number, the gel samples were homogenized, cells were lysed, and aliquots were used to measure the double stranded DNA (dsDNA) content using a Quant-it PicoGreen assay. Briefly, an aliquot (100 μL) of the working solution was added to 100 μL of the cell lysate and incubated for 4 min at ambient conditions. The fluorescence of the solution was measured with a plate reader (Synergy HT, Bio-Tek, Winooski, Vt.) at emission and excitation wavelength of […], respectively. Measured fluorescent intensities were correlated to cell numbers using a calibration curve constructed with 4T1 or MCF7 cells of known concentration ranging from zero to […].
The tumor cells were cultured in RMPI-1640 medium with 10% FBS under 5% CO2 at 37° C. Cells were trypsinized after reaching 70% confluency. The synthesized acrylamide-terminated peptides were added to the PEGDA macromer solution and the mixture was sterilized by filtration (220 nm filter). Next, 1.4×10^5/ml cells (4T1, MCF7, or MCF10a) were added to the macromer solution and mixed gently with a pre-sterilized glass rod. The cell-suspended hydrogel precursor solution was crosslinked with UV for 10 min as described above. After cross-linking, the gel was cut into disks and incubated in stem cell culture medium on ultra-low attachment tissue culture plates under 5% CO2. The stem cell medium consisted of DMEM-F12 supplemented with 0.4% BSA, 5 μg/ml insulin, 40 ng/ml bFGF, 20 ng/ml EGF, 5% horse serum, 100 U/ml penicillin, and 100 μg/ml streptomycin. For growing tumorspheres in suspension, trypsinized cells (4T1 or MCF7) were cultured on ultra-low attachment tissue culture plates with stem cell culture medium under 5% CO2 at 37° C.
To determine cell viability, gels were stained with cAM and EthD dyes after cell encapsulation to image live and dead cells, respectively. […]

“Also recorded” adds a separate entry of the source. No end group written: not given here.

Take WQPPRARI [FHBP]: the tumorsphere formation result is “increased; also recorded: enhanced” and the “cell number density compared with the gel without peptide” value is “higher cell number”. Also, the “size of cell aggregates / spheres” value (4T1 in peptide-conjugated gels) is “larger spheres”.

Regarding “RLVSYNGIIFFLK [conj CD44BP] (RLVSYNGIIFFLK-NH2; also: conjugated to PEGDA gel, site not given here)”, the tumorsphere formation result is listed as “completely abolished sphere formation” and the “cell number density compared with the gel without peptide” value was “strongest effect on cell density”. Also, where the note is “listed as CD44BP”, the tumorsphere formation entry is “inhibits tumorsphere formation; also recorded: completely abolished” and the “cell number density compared with the gel without peptide” value is “reduced cell number”.

With GRGDS [IBP], the tumorsphere formation entry was “completely abolished” and the “cell number density compared with the gel without peptide” value was “reduced cell number”.
